Experimental data: patent publication US11357779B2 (G1 Therapeutics, Inc., priority 2018, dated 2022)
Entries after “also recorded” stand apart in the source; their conditions may differ.

How the values were obtained:
[1] = Crystallization and slurry experiments, morphic forms of Compound II (XRPD, characterization); assay type: physicochemical; conditions: morphic forms (XRPD patterns) of Compound II
Protocol: Eleven unique XRPD patterns (Form A-Form K) of Compound II were obtained from crystallization and slurry experiments using various solvents.
Forms A, B, and D were evaluated as solid state forms.

[2] = TG and TG-IR analysis of Form B; assay type: physicochemical; conditions: TG-IR
Protocol: The TG analyses were performed using a TA Instrument Q5000 thermogravimetric analyzer. Temperature calibration was performed using nickel and Alumel. The sample was placed in a platinum pan and inserted into the TG furnace. The furnace was heated under a nitrogen purge to 350° C. at a rate of 10° C./min.
Thermogravimetric infrared (TG-IR) analysis was performed on a TA Instruments Q5000 IR thermogravimetric (TG) analyzer interfaced to a Magna-IR 560@ Fourier transform infrared (FT-IR) spectrophotometer (Thermo Nicolet) equipped with an Ever-Glo mid/far IR source, a potassium bromide (KBr) beamsplitter, and a mercury cadmium telluride (MCT-A) detector. The FT-IR wavelength verification was performed using polystyrene, and the TG calibration standards were nickel and Alumel™. The sample was placed in a platinum sample pan and the pan was inserted into the TG furnace. The TG instrument was started first, immediately followed by the FT-IR instrument. The TG instrument was operated under a flow of helium at 90 and 10 cc/minute for the purge and balance, respectively. The furnace was heated under helium at a rate of 20° C./minute to a final temperature of approximately 140° C. IR spectra were collected approximately every 32 seconds for approximately 7.5 minutes. Each IR spectrum represents 32 co-added scans collected at a spectral resolution of 4 cm-1. Volatiles were identified from a search of the High Resolution Nicolet Vapor Phase spectral library.
A TG-IR experiment was carried out on pure Form B (Sample 11 from the small-scale slurry experiments) at […] in an effort to investigate the stability of Form B at elevated temperature by monitoring potential release of hydrogen chloride.

[3] = Dynamic vapor sorption (moisture sorption) experiment; conditions: for % wt change at 60% RH / % wt change at 90% RH: DVS; for stability in the moisture sorption experiment (XRPD of dried sample): after DVS; for stability in the moisture sorption experiment (XRPD of dried sample) / XRPD (post DVS): dried at 60° C. and 0% RH; for XRPD (post DVS): after moisture sorption experiment
Protocol: Dynamic vapor sorption experiments were performed on Form A, Form B, and Form D. Table 103 provides the results of the DVS experiment.

[4] = Stability study under thermal stress, 60° C. for 7 days; assay type: physicochemical
Protocol: Forms A, B, and D were stored in an oven maintained at 60° C. for 7 days.

[5] = Vacuum drying experiments of Form B; assay type: physicochemical; conditions: for Weight Loss (calculated by weight before and after drying): Vacuum oven
[6] = Vacuum drying experiments of Form B; assay type: physicochemical; conditions: for Weight Loss (calculated by weight before and after drying): Vacuum oven; for XRPD Result: after Vacuum oven
Description: Weighted amounts of impure Form B and pure Form B samples from the previous experiments (Samples 14, 8, 11, 19, 21, and 23) were vacuum dried at ambient or elevated temperatures using various vacuum levels from approximately 14 in Hg up 27-28 in Hg. The resulting materials were weighted out prior to submission for XRPD analysis.
The XRPD pattern of the resulting material was consistent with Form B, however, tiny shifting in a few peak positions in the XRPD pattern was observed (FIG. 26).

[7] = Solubility estimate by aliquot addition with visual observation; assay type: physicochemical
Protocol: Solubility estimates of impure Form B were attempted in various predominantly HCl acidic aqueous acetone solvent mixtures using an aliquot addition method that involved visual observation. Aliquots of various solvents or diluent/organic solvent mixtures were added to measured amounts of impure Form B with agitation (typically sonication) at ambient temperature until complete dissolution was achieved, as judged by visual observation. Solubilities were calculated based on the total solvent used to give a solution; actual solubilities may be greater because of the volume of solvent portions utilized or a slow rate of dissolution. […] If dissolution occurred at the first aliquot, the value was reported as “>”. Due to the haziness of the obtained samples, effective solubility estimates were difficult to discern.

[8] = 0.1M HCl:acetone 20:80, ambient
[9] = 0.5M HCl:acetone 10:90, ambient
[10] = 0.5M HCl:acetone 20:80, ambient
[11] = 1.0M HCl:acetone 75:25, ambient

CC(C)N1CCN(c2ccc(Nc3ncc4cc5n(c4n3)C3(CCCCC3)CNC5=O)nc2)CC1.Cl.Cl [A]
Possible Form [1]: Hydrate

CC(C)N1CCN(c2ccc(Nc3ncc4cc5n(c4n3)C3(CCCCC3)CNC5=O)nc2)CC1.Cl.Cl [B]
Possible Form [1]: Hydrate

CC(C)N1CCN(c2ccc(Nc3ncc4cc5n(c4n3)C3(CCCCC3)CNC5=O)nc2)CC1.Cl.Cl [C]
Possible Form [1]: EtOAc

CC(C)N1CCN(c2ccc(Nc3ncc4cc5n(c4n3)C3(CCCCC3)CNC5=O)nc2)CC1.Cl.Cl [Compound II, Form B]
Weight (%) ([2]; 0.38 min, 36.60 ° C.): 99.93% | Weight (%) ([2]; 0.55 min, 40.20 ° C.): 99.87% | Weight (%) ([2]; 0.73 min, 43.80 ° C.): 99.77% | Weight (%) ([2]; 0.90 min, 47.40 ° C.): 99.63% | Weight (%) ([2]; 1.08 min, 51.00 ° C.): 99.46% | Weight (%) ([2]; 1.25 min, 54.60 ° C.): 99.26% | Weight (%) ([2]; 1.43 min, 58.20 ° C.): 99.03% | Weight (%) ([2]; 1.61 min, 61.80 ° C.): 98.79% | Weight (%) ([2]; 1.78 min, 65.40 ° C.): 98.52% | Weight (%) ([2]; 1.96 min, 69.00 ° C.): 98.22% | Weight (%) ([2]; 2.14 min, 72.60 ° C.): 97.86% | Weight (%) ([2]; 2.32 min, 76.20 ° C.): 97.44% | Weight (%) ([2]; 2.50 min, 79.80 ° C.): 96.95% | Weight (%) ([2]; 2.68 min, 83.40 ° C.): 96.45% | Weight (%) ([2]; 2.86 min, 87.00 ° C.): 95.97% | Weight (%) ([2]; 3.04 min, 90.60 ° C.): 95.57% | Weight (%) ([2]; 3.23 min, 94.20 ° C.): 95.23% | Weight (%) ([2]; 3.41 min, 97.80 ° C.): 94.95% | Weight (%) ([2]; 3.59 min, 101.40 ° C.): 94.71% | Weight (%) ([2]; 3.77 min, 105.00 ° C.): 94.50% | Weight (%) ([2]; 3.95 min, 108.60 ° C.): 94.32% | Weight (%) ([2]; 4.13 min, 112.20 ° C.): 94.18% | Weight (%) ([2]; 4.31 min, 115.80 ° C.): 94.06% | Weight (%) ([2]; 4.68 min, 123.00 ° C.): 93.86% | Weight (%) ([2]; 4.86 min, 126.60 ° C.): 93.78% | Weight (%) ([2]; 5.04 min, 130.20 ° C.): 93.71% | Weight (%) ([2]; 5.22 min, 133.80 ° C.): 93.65%

CC(C)N1CCN(c2ccc(Nc3ncc4cc5n(c4n3)C3(CCCCC3)CNC5=O)nc2)CC1.Cl.Cl [D]
Possible Form [1]: Hydrate

CC(C)N1CCN(c2ccc(Nc3ncc4cc5n(c4n3)C3(CCCCC3)CNC5=O)nc2)CC1.Cl.Cl [E]
Possible Form [1]: Acetone

CC(C)N1CCN(c2ccc(Nc3ncc4cc5n(c4n3)C3(CCCCC3)CNC5=O)nc2)CC1.Cl.Cl [F]
Possible Form [1]: Unstable

CC(C)N1CCN(c2ccc(Nc3ncc4cc5n(c4n3)C3(CCCCC3)CNC5=O)nc2)CC1.Cl.Cl [Form A]
moisture adsorbed ([3]; 60% RH): 14.9 wt % | moisture adsorbed ([3]; 90% RH): 15.8 wt % | % wt change at 60% RH ([3]; 60% RH): 14.9 % wt | % wt change at 90% RH ([3]; 90% RH): 15.8 % wt | stability in the moisture sorption experiment (XRPD of dried sample) [3]: unstable; also recorded: not stable | XRPD (post DVS) [3]: Form K | XRPD pattern after thermal stress [4]: A new pattern was found; also recorded: converted to a new Form

CC(C)N1CCN(c2ccc(Nc3ncc4cc5n(c4n3)C3(CCCCC3)CNC5=O)nc2)CC1.Cl.Cl [Form C]
XRPD pattern after thermal stress [4]: remained unchanged

CC(C)N1CCN(c2ccc(Nc3ncc4cc5n(c4n3)C3(CCCCC3)CNC5=O)nc2)CC1.Cl.Cl [Form D]
moisture adsorbed ([3]; 60% RH): 4.4 wt % | % wt change at 60% RH ([3]; 60% RH): 4.4 % wt | % wt change at 90% RH ([3]; 90% RH): 17.0 % wt | stability in the moisture sorption experiment (XRPD of dried sample) [3]: unstable; also recorded: not stable | XRPD (post DVS) [3]: Form K | XRPD pattern after thermal stress [4]: No change in the XRPD pattern

CC(C)N1CCN(c2ccc(Nc3ncc4cc5n(c4n3)C3(CCCCC3)CNC5=O)nc2)CC1.Cl.Cl [G]
Possible Form [1]: Anhydrate

CC(C)N1CCN(c2ccc(Nc3ncc4cc5n(c4n3)C3(CCCCC3)CNC5=O)nc2)CC1.Cl.Cl [H]
Possible Form [1]: n-PrOH

CC(C)N1CCN(c2ccc(Nc3ncc4cc5n(c4n3)C3(CCCCC3)CNC5=O)nc2)CC1.Cl.Cl [Sample 8]
Weight Loss (calculated by weight before and after drying) ([5]; ~40° C., 15 h (~29.5 in Hg)): Weight loss: 7.4% | XRPD Result ([5]; after Vacuum oven, ~40° C., 15 h (~29.5 in Hg)): New crystalline

CC(C)N1CCN(c2ccc(Nc3ncc4cc5n(c4n3)C3(CCCCC3)CNC5=O)nc2)CC1.Cl.Cl [Sample 11]
Weight Loss (calculated by weight before and after drying) ([6]; 22° C., 0.5 h (~14 in Hg)): Weight loss: 1.8% | XRPD Result ([6]; 22° C., 0.5 h (~14 in Hg)): Form B tiny peak

CC(C)N1CCN(c2ccc(Nc3ncc4cc5n(c4n3)C3(CCCCC3)CNC5=O)nc2)CC1.Cl.Cl [Sample 14]
Weight Loss (calculated by weight before and after drying) ([5]; 23° C., 2 h (~29.5 in Hg)): Weight loss: 6.8% | Weight Loss (calculated by weight before and after drying) ([5]; ~40° C., 15 h (~29.5 in Hg)): Weight loss: 7.5%

CC(C)N1CCN(c2ccc(Nc3ncc4cc5n(c4n3)C3(CCCCC3)CNC5=O)nc2)CC1.Cl.Cl [Sample 19]
Weight Loss (calculated by weight before and after drying) ([6]; RT, 1.0 h (~27-28 in Hg)): Weight loss: 9.7% | XRPD Result ([6]; RT, 1.0 h (~27-28 in Hg)): Form B + broad

CC(C)N1CCN(c2ccc(Nc3ncc4cc5n(c4n3)C3(CCCCC3)CNC5=O)nc2)CC1.Cl.Cl [Sample 21]
Weight Loss (calculated by weight before and after drying) ([6]; 22° C., 0.5 h (~28 in Hg)): Weight loss: 30.6%

CC(C)N1CCN(c2ccc(Nc3ncc4cc5n(c4n3)C3(CCCCC3)CNC5=O)nc2)CC1.Cl.Cl [Sample 23]
Weight Loss (calculated by weight before and after drying) ([6]; 22° C., 1.0 h (~27-28 in Hg)): Weight loss: 4.7% | XRPD Result ([6]; 22° C., 1.0 h (~27-28 in Hg)): Most likely Form B

CC(C)N1CCN(c2ccc(Nc3ncc4cc5n(c4n3)C3(CCCCC3)CNC5=O)nc2)CC1.Cl.Cl [impure Form B]
Observation [7, 8]: solids remained | Solubility [7, 8]: <1 mg/mL | Observation [7, 9]: solids remained | Solubility [7, 9]: <1 mg/mL | Observation [7, 10]: solids remained | Solubility [7, 10]: <1 mg/mL | Observation ([7]; 1M HCl:acetone 5:95, ambient): solids remained | Solubility ([7]; 1M HCl:acetone 5:95, ambient): <1 mg/mL | Observation ([7]; 1M HCl:acetone 10:90, ambient): solids remained | Solubility ([7]; 1M HCl:acetone 10:90, ambient): <1 mg/mL | Observation ([7]; 1M HCl:acetone 20:80, ambient): solids remained | Solubility ([7]; 1M HCl:acetone 20:80, ambient): <1 mg/mL | Observation ([7]; 1M HCl:acetone 33:67, ambient): hazy solution | Solubility ([7]; 1M HCl:acetone 33:67, ambient): 2 mg/mL | Observation ([7]; 1M HCl:acetone 50:50, ambient): hazy solution | Solubility ([7]; 1M HCl:acetone 50:50, ambient): 4 mg/mL | Observation ([7]; 1M HCl:acetone 60:40, ambient): hazy solution | Solubility ([7]; 1M HCl:acetone 60:40, ambient): 4 mg/mL | Observation ([7]; 1M HCl:acetone 67:33, ambient): hazy solution | Solubility ([7]; 1M HCl:acetone 67:33, ambient): 6 mg/mL | Observation [7, 11]: hazy solution | Solubility [7, 11]: 7 mg/mL | Observation ([7]; 2.0M HCl, ambient): hazy solution | Solubility ([7]; 2.0M HCl, ambient): 4 mg/mL | Observation ([7]; 5.0M HCl, ambient): hazy solution | Solubility ([7]; 5.0M HCl, ambient): 3 mg/mL | Observation ([7]; 5.0M HCl:water 1:2, ambient): clear solution | Solubility ([7]; 5.0M HCl:water 1:2, ambient): 7 mg/mL | Solubility ([7]; HCl acidic aqueous acetone solvent mixtures, ambient temperature, visual estimate): 3 to 7 mg/mL | Observation ([7]; Water, ambient): solids remained | Solubility ([7]; Water, ambient): <7 mg/mL | Observation ([7]; Water:acetone 1:2, ambient): hazy solution | Solubility ([7]; Water:acetone 1:2, ambient): 3 mg/mL | Observation ([7]; Water:acetone 3:1, ambient): solids remained | Solubility ([7]; Water:acetone 3:1, ambient): <3 mg/mL
